The record followed here is patent publication US6177438A, “Morphinan derivatives and pharmaceutical use thereof” (priority 1993, dated 2001).

Data set [1] has as its system cultured nerve cells (cerebral cortex). Nature of the data set: cells. To be noted: Rattus norvegicus, Cerebral cortex neuron, 24 h, read-out: ED50 (protection against glutamic acid toxicity).
Data set [2] deals with extracted guinea pig ileum preparation. In words: Opioid activity test using an extracted guinea pig ileum preparation (suppression of electrically induced contractions). Also noted: species or system male Hartley guinea pig. To be noted: Cavia porcellus, electrical stimulus 0.1 Hz, 37° C. The protocol:
(§1) A male Hartley guinea pig was used in this test. After sacrificing the guinea pig and extracting the ileum, the lumen was washed with nutrient solution and only the longitudinal muscle was isolated. This longitudinal muscle was suspended in a Magnus tube filled with Krebes-Henseleit solution (NaCl 118 mM; KCl 4.7 mM; CaCl2 2.5 mM; KH2 PO4 1.2 mM; NaHCO3 25 mM; MgSO4 1.2 mM; Glucose 10 mM) warmed to 37° C. and ventilated with 5% carbon dioxide and 95% oxygen. Electrical stimulus was performed at 0.1 Hz for 5.0 ms by means of ring-shaped platinum electrodes located above and below. Tissue contractions were recorded on a polygraph using an isometric transducer.
(§2) After adequately washing with nutrient solution and the contraction reaction stabilized, the μ agonist, naloxone, or the κ agonist, norBNI, was added after which the test compound was again cumulatively added after roughly 20 minutes. The Ke value was calculated using the following calculation formula from the difference in the efficacies of both agonists.

Data set [3] deals with T1, κ receptor (Mus musculus, UniProt P33534).
T1 construct: from tissue; host or cells: mouse (male ddy) vas deferens
In words: Opioid activity test using an extracted mouse vas deferens preparation, Ke with norBNI. To be noted: for receptor selectivity of agonist (κ): in words; for Ke, norBNI: κ, norBNI added. Also noted: species or system male ddy mouse.

In data set [4] the target is T2, μ receptor (Mus musculus, UniProt P42866).
T2 construct: naloxone as mu antagonist (printed 'agonist')
Nature of the data set: Opioid activity test using an extracted mouse vas deferens preparation, Ke with naloxone. Also on record: species or system male ddy mouse. To be noted: naloxone added.

Data set [5] has as its system extracted mouse vas deferens preparation. Nature of the data set: Opioid activity test using an extracted mouse vas deferens preparation (suppression of electrically induced contractions). The note with it: electrical stimulus 0.1 Hz, 37° C. Also noted: species or system male ddy mouse. The method in brief:
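Male ddY mouse vas deferens in Krebs-Henseleit at 37° C, 5% CO2/95% O2, field-stimulated at 0.1 Hz, 5.0 ms; isometric contractions recorded. After adding naloxone, NTI or norBNI, test compound was added cumulatively after ~20 min; Ke derived from the difference in agonist efficacies.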

A short description of data set [6]: Diuretic action (urine output for 5 hours after physiological saline loading in rats). Format: in vivo, male Wistar rats. To be noted: Rattus norvegicus, sc, 5 hours after saline 20 ml/kg p.o.; for ED (200% urine output): dose giving urine output of 200 (non-dosed group = 100); for ED (500% urine output): dose giving urine output of 500 (non-dosed group = 100). In short, it runs like this: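 Doses reported as ED200/ED500, i.e. those raising 5 h urine output to 200 or 500 versus undosed rats set at 100. Subcutaneous dosing preceded an oral 20 ml/kg saline load by 30 min; male Wistar rats, 7-8 weeks, deprived of water 1 h beforehand.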

For data set [7], the target named is T3, κ receptor (Cavia porcellus, UniProt P41144).
T3 construct: After sacrificing the guinea pig and extracting the ileum; from tissue; host or cells: guinea pig (male Hartley) ileum, longitudinal muscle
In words: Opioid activity test using an extracted guinea pig ileum preparation, Ke with norBNI. To be noted: norBNI added. Also on record: species or system male Hartley guinea pig. The protocol: as §1, §2
(§3) Ke=[Conc. of added agonist]/(IC50 ratio-1)
(§4) IC50 ratio=IC50 in the presence of agonist/IC50 in the absence of agonist

For data set [8], the system named is μ receptor. Nature of the data set: Opioid activity test using an extracted guinea pig ileum preparation, Ke with naloxone. The note with it: naloxone added. Also on record: species or system male Hartley guinea pig. The protocol:
as §1, §2, §3, §4

The subject of data set [9] is acetic acid-induced writhing in ddy mice. In words: animal or person. The note with it: Mus musculus, sc, s.c. 15 minutes before acetic acid, read-out: ED50. In kind it is in vivo, 5 week old ddy mice. As for the experimental part: 5 week old ddy mice were used in this test. After intraperitoneal administration of 0.1 ml of 0.6% aqueous acetic acid per 10 g of body weight, the number of writhing reactions that occurred in 10 minutes starting 10 minutes after administration was evaluated for the indicator. The test drug was administered subcutaneously into the backs of the animals 15 minutes before administration of acetic acid.

For the next data set, the target named is T4, δ receptor (Mus musculus, UniProt P32300).
T4 construct: The vas deferens extracted from the animal was suspended in a Magnus tube; from tissue; host or cells: mouse (male ddy) vas deferens
Also on record: species or system male ddy mouse. The note with it: mouse vas deferens, δ, NTI added.

In data set [10] the test system is cultured nerve cells (cerebral cortex). To be noted: 10 mM glutamic acid, 24 hours.
The subject of data set [11] is guinea pig respiratory tract. Nature of the data set: Antitussive action using the guinea pig respiratory tract stimulation method. In kind it is in vivo, male Hartley guinea pigs. The note with it: for ED50: Cavia porcellus, sc; for No. of Animals in which Coughing was Suppressed/No. of Animals Tested: s.c. The protocol: Evaluation of Antitussive Action Using the Guinea Pig Respiratory Tract Stimulation Method
Male Hartley guinea pigs having body weights of 330-380 g were used in this test in groups of 5 animals each. The animals were immobilized in the supine position under mild anesthesia by intraperitoneal administration of 15 mg/kg of sodium pentobarbital. An incision was made in the necks of the animals to expose the respiratory tract. A small hole was opened in the exposed respiratory tract, and stimulating hairs were inserted to a depth of roughly 3 cm and at an angle of 30 degrees to the respiratory tract through the opened hole to provide a stimulus to the inner wall of the respiratory tract. The animals were then examined for the presence of coughing. […] The test drug was administered subcutaneously, and stimuli were provided two times each 15, 30, 60 and 120 minutes after administration.

Data set [12] relates to nerve cells in the region of the hippocampus CA1. In words: Delayed neuronal death protective action (gerbil transient ischemia model, hippocampus CA1 nerve cell count). The note with it: s.c.; for No. of Residual Nerve Cells: 1 week after ligation; for Suppression of defluxion of brain nerve cells caused by ischemia / cerebro-neuroprotective activity (in words): gerbils. In kind it is in vivo, gerbils. As for the experimental part: Those compounds that provide protection from and suppress delayed neuronal death described in Example 238 are considered to be promising as preventive and therapeutic agents for ischemic brain disorders, brain nerve cell disorders and dementia, which are problems that the present invention is attempting to solve. The pharmacological activity of the compounds of the present invention was evaluated in the manner below using gerbils for the animal model.
A midline incision was made in gerbils having body weights of 50-70 g under ether anesthesia. Blood flow through the carotid arteries on both sides was interrupted to create an ischemic state by ligating the vessels for 5 minutes. The test compound was administered subcutaneously either 30 minutes or 1 hour prior to ligation ischemia, and the rectal temperature of the animals was controlled to 37±2° C. using a heating pad or heater starting 5 minutes before to 30 minutes after ligation ischemia. 1 week after ligation, 4% neutral buffered formalin was perfused from the heart throughout the body followed by extraction of the brain. After post-fixing the extracted brain in the same solution, the tissue was prepared into sections after embedding in paraffin. The sections were stained with hematoxylin and eosin stain, and the number of nerve cells in the region of the hippocampus CA1 over a width of 1 mm to the left and right was counted. The total number of nerve cells on the right and left sides was then used for evaluation.

Structures can show the parent of a compound that is named as a salt.

T1 sequence (P33534 whole entry): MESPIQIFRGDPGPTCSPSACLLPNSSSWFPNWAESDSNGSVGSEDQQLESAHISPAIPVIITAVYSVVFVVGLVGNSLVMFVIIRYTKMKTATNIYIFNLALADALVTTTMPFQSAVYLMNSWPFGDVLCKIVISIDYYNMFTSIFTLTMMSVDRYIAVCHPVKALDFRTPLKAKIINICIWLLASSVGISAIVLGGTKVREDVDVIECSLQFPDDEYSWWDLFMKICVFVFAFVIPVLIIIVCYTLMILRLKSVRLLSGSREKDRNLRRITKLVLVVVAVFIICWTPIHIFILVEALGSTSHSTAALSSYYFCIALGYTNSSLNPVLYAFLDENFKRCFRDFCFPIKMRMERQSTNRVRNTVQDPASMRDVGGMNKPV
T4 sequence (P32300 whole entry): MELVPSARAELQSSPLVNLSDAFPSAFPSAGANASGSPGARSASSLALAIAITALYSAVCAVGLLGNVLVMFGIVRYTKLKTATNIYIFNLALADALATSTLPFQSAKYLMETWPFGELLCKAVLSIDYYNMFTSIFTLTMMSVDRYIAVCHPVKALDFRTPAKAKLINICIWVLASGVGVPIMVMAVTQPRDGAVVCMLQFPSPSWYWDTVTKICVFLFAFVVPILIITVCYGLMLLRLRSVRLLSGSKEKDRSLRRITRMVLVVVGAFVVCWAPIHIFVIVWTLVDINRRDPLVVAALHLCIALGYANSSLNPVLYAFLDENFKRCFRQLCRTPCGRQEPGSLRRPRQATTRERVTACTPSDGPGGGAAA
T2 sequence (P42866 whole entry): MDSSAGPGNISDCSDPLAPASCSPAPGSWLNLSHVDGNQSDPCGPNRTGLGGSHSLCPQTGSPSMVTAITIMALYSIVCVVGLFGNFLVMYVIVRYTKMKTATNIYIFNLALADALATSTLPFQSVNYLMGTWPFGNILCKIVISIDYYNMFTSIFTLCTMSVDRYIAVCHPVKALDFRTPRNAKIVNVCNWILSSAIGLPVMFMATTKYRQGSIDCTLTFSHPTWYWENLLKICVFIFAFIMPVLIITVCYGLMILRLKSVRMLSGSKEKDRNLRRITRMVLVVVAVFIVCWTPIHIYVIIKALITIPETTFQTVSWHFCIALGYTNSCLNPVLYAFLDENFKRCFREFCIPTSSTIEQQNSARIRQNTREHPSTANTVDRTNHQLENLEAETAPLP
T3 sequence (P41144 whole entry): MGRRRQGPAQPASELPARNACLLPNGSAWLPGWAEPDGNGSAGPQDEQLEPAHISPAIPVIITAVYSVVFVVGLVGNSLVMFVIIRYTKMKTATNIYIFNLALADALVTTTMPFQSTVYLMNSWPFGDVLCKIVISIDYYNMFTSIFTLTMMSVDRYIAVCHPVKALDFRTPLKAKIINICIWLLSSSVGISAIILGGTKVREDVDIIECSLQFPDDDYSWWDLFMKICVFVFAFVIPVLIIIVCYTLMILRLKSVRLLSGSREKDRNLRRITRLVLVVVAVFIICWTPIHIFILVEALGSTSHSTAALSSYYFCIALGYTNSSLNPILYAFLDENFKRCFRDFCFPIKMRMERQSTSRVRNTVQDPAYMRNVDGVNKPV

As for `CN(C(=O)Cc1ccc(Cl)c(Cl)c1)[C@H]1CC[C@@]2(O)[C@H]3Cc4ccc(O)c5c4[C@@]2(CCN3CC2CC2)[C@H]1O5` [Compound 1, 17-cyclopropylmethyl-4,5α-epoxy-3,14β-dihydroxy-6α-(N-methyl-3,4-dichlorophenylacetamido)morphinan], in data set [1], the EC50 was 500 nM. Also, the values for the concentration for half-maximal inhibition (IC50) in data set [2] and in data set [5] were 0.026 nM and 0.395 nM, respectively. Moreover, the “receptor selectivity of agonist (κ)” value on κ receptor [3] is given as “selective agonists for κ receptors”. Also, the “Ke, norBNI” value on κ receptor [3] was determined as 0.548 nM; on κ receptor [7], 0.16 nM. The figures for the “Ke, Naloxone” value on μ receptor [4] and in the data set on μ receptor [8] were 53 nM and 650 nM, respectively. In [6], this molecule yielded an ED (200% urine output) of 2.7 µg/kg. The same molecule came in with an ED (500% urine output) in [6] of 45.7 µg/kg. In data set [9], the ED50 is 17 µg/kg. Also, the “Ke, NTI” value on δ receptor came to 17.3 nM. The “Protective action against cytotoxicity caused by glutamic acid (in words)” value (“Protective action” for short) in [10] was “clearly demonstrated action that protects nerve cells from cytotoxicity caused by glutamic acid”.
With `CN(C(=O)/C=C/c1cccc(C(F)(F)F)c1)[C@@H]1CC[C@@]2(O)[C@H]3Cc4ccc(O)c5c4[C@@]2(CCN3CC2CC2)[C@H]1O5` [Compound 60, 17-cyclopropylmethyl-3,14β-dihydroxy-4,5α-epoxy-6β-(N-methyl-3-trifluoromethylcinnamamido)morphinan.cndot.tartrate], the 50% effective dose (ED50) in [11] is 2.6 µg/kg; in [9], 4.6 µg/kg. The “No. of Animals in which Coughing was Suppressed/No. of Animals Tested” value is 1/5 in data set [11] (1 μg/kg), 3/5 in [11] (3 μg/kg) and 5/5 in data set [11] (30 μg/kg). Further, in [1], the EC50 was 1310 nM. Besides, the “receptor selectivity of agonist (κ)” value at κ receptor [3] is “selective agonists for κ receptors”. Besides, at κ receptor [3], the “Ke, norBNI” value is 3.20 nM. In [5], this molecule came in with an IC50 of 0.468 nM. For the same molecule, the ED (200% urine output) in data set [6] was 14.3 µg/kg. The same molecule yielded an ED (500% urine output) in data set [6] of 1130 µg/kg. In addition, on δ receptor, the “Ke, NTI” value stood at 291 nM. Besides, the “Protective action” value in data set [10] was “clearly demonstrated action that protects nerve cells from cytotoxicity caused by glutamic acid”. Moreover, the “No. of Residual Nerve Cells” value in data set [12] (0.03 mg/kg, 1 hour before ischemia) came to 52.1 ± 14.8; in data set [12] (0.3 mg/kg, 1 hour before ischemia), 148.3 ± 28.5; in data set [12] (3 mg/kg, 1 hour before ischemia), 284.5 ± 7.1. For the same molecule, the “Suppression of defluxion of brain nerve cells caused by ischemia / cerebro-neuroprotective activity (in words)” value in [12] is reported as “significantly suppress defluxion of brain nerve cells caused by ischemia”.
`CN(C(=O)/C=C/c1ccoc1)[C@@H]1CC[C@@]2(O)[C@H]3Cc4ccc(O)c5c4[C@@]2(CCN3CC2CC2)[C@H]1O5` [Compound 61, 17-cyclopropylmethyl-3,14β-dihydroxy-4,5α-epoxy-6β-[N-methyl-trans-3-(3-furyl)acrylamido]morphinan.cndot.tartrate]: the ED50 in data set [11] worked out at 3.7 µg/kg. In data set [1], the EC50 turned out to be 16300 nM. In addition, at κ receptor [3], the “Ke, norBNI” value stood at 0.164 nM. In [5], this molecule came in with an IC50 of 0.42 nM. Further, in [6], the ED (200% urine output) is 3.2 µg/kg and the ED (500% urine output) was 157 µg/kg. In addition, the median effective dose (ED50) in data set [9] was determined as 4.4 µg/kg. The “Protective action” value in data set [10] is listed as “clearly demonstrated action that protects nerve cells from cytotoxicity caused by glutamic acid”.
As for `Cc1cccc(/C=C/C(=O)N(C)[C@@H]2CC[C@@]3(O)[C@H]4Cc5ccc(O)c6c5[C@@]3(CCN4CC3CC3)[C@H]2O6)c1` [Compound 69, 17-cyclopropylmethyl-3,14β-dihydroxy-4,5α-epoxy-6β-(N-methyl-3-methylcinnamamido)morphinan.cndot.hydrochloride], the 50% effective dose (ED50) was found to be 12.5 µg/kg in [11] and 4.9 µg/kg in data set [9]. The “No. of Animals in which Coughing was Suppressed/No. of Animals Tested” value was 1/5 in [11] (1 μg/kg), 1/5 in data set [11] (3 μg/kg) and 4/5 in [11] (30 μg/kg). Further, at κ receptor [3], the “receptor selectivity of agonist (κ)” value is given as “selective agonists for κ receptors”. Further, the “Ke, norBNI” value on κ receptor [3] was 1.95 nM. For the same molecule, the “Ke, Naloxone” value on μ receptor [4] stood at 1780 nM. Moreover, inhibition in [5] was half-maximal at 0.32 nM (IC50). Also, the “Ke, NTI” value at δ receptor was 64.5 nM. The “No. of Residual Nerve Cells” value in data set [12] (0.03 mg/kg, 30 minutes before ischemia) came to 12.4 ± 3.0; in data set [12] (0.3 mg/kg, 30 minutes before ischemia), 43.3 ± 19.1; in [12] (3 mg/kg, 30 minutes before ischemia), 178.3 ± 30.4. For the same molecule, in data set [12], the “Suppression of defluxion of brain nerve cells caused by ischemia / cerebro-neuroprotective activity (in words)” value is listed as “significantly suppress defluxion of brain nerve cells caused by ischemia”.
